system: HCV replicon; test: HCV replicon assay (FRET or luciferase readout); assay type: cell-based; conditions: HCV replicon cells; FRET or luciferase activity; read-out: EC50
Excerpt: FRET Assay Preparation. To perform the HCV FRET screening assay, 96-well cell culture plates were used. The FRET peptide (Anaspec, Inc.) (Taliani et al., Anal. Biochem. 1996, 240, 60-67) contains a fluorescence donor, EDANS, near one end of the peptide and an acceptor, DABCYL, near the other end. The fluorescence of the peptide is quenched by […] resonance energy transfer (RET) between the donor and the acceptor, but as the NS3 protease cleaves the peptide the products are released from RET quenching and the fluorescence of the donor becomes apparent. The assay reagent was made as follows: 5X cell Luciferase cell culture lysis reagent from Promega (#E153A) diluted to 1X with dH2O, NaCl added to 150 mM final, the FRET peptide diluted to 20 µM final from a 2 mM stock.
To prepare plates, HCV replicon cells, with or without a Renilla luciferase reporter gene, were trypsinized and placed into each well of a 96-well plate with titrated test compounds added in columns 3 through 12; columns 1 and 2 contained a control compound (HCV protease inhibitor), and the bottom row contained cells without compound. The plates were then placed in a CO2 incubator at 37 °C.
Assays. Subsequent to addition of the test compounds described above (FRET Assay Preparation), at various times the plate was removed and Alamar blue solution (Trek Diagnostics, #00-100) was added per well as a measure of cellular toxicity. After reading in a Cytoflour 4000 instrument (PE Biosystems), plates were rinsed with PBS and then used for FRET assay by the addition of 30 ul of the FRET peptide assay reagent described above (FRET Assay Preparation) per well. The plate was then placed into the Cytoflour 4000 instrument which had been set to 340 excite/490 emission, automatic mode for 20 cycles and the plate read in a kinetic mode. Typically, the signal to noise using an endpoint analysis after the reads was at least three-fold. Alternatively, after Alamar blue reading, plates were rinsed with PBS, 50 ul of DMEM (high glucose) without phenol red was added and plates were then used for luciferase assay using the Promega Dual-Glo Luciferase Assay System.
Compound analysis was determined by quantification of the relative HCV replicon inhibition and the relative cytotoxicity values. To calculate cytoxicity values, the average Alamar Blue fluorescence signals from the control wells were set as 100% non-toxic. The individual signals in each of the compound test wells were then divided by the average control signal and multiplied by 100% to determine […]. To calculate the HCV replicon inhibition values, an average background value was obtained from the two wells containing the highest amount of HCV protease inhibitor at the end of the assay period. These numbers were similar to those obtained from naïve Huh-7 cells.
The background numbers were then subtracted from the average signal obtained from the control wells and this number was used as 100% activity. The individual signals in each of the compound test wells were then divided by the averaged control values after background subtraction and multiplied by 100% to determine percent activity. EC50 values for a protease inhibitor titration were calculated as the concentration which caused a 50% reduction in FRET or luciferase activity. The two numbers generated for the compound plate, percent cytoxicity and percent activity were used to determine compounds of interest for further analysis.

Compound	EC50 [nM]
COc1ccc2c(c1)C=C(c1nn(C(C)C)c(C)c1C(=O)N1C[C@@H](C)O[C@@H](C)C1)Cn1c-2c(C2CCCCC2)c2ccc(C(=O)NS(=O)(=O)C(C)C)cc21 [drawing 156]	1 to 500

same assay, conditions: Hepatitis C virus

Compound	EC50 [nM]
CCn1ncc(C(=O)N2C3CCCC2COC3)c1C1=Cc2cc(OC)ccc2-c2c(C3CCCCC3)c3ccc(C(=O)NS(=O)(=O)C(C)C)cc3n2C1	1 to 500
CCn1ncc(C(=O)N2C3CCC2CN(C)C3)c1C1=Cc2cc(OC)ccc2-c2c(C3CCCCC3)c3ccc(C(=O)NS(=O)(=O)C(C)C)cc3n2C1	1 to 500
COc1ccc2c(c1)C=C(c1c(C(=O)N3CC4CCC(C3)O4)cnn1CC(F)(F)F)Cn1c-2c(C2CCCCC2)c2ccc(C(=O)NS(=O)(=O)C(C)C)cc21	1 to 500
COc1ccc2c(c1)C=C(c1c(C(=O)N3C4COCC3COC4)cnn1CC(F)(F)F)Cn1c-2c(C2CCCCC2)c2ccc(C(=O)NS(=O)(=O)C(C)C)cc21	1 to 500
COc1ccc2c(c1)C=C(c1c(C(=O)N3CC4CC3CO4)cnn1CC(F)(F)F)Cn1c-2c(C2CCCCC2)c2ccc(C(=O)NS(=O)(=O)C(C)C)cc21 (stereo not shown)	1 to 500
COc1ccc2c(c1)C=C(c1c(C(=O)N3C4CCCC3COC4)cnn1C(C)C)Cn1c-2c(C2CCCCC2)c2ccc(C(=O)NS(=O)(=O)C(C)C)cc21	1 to 500
COc1ccc2c(c1)C=C(c1c(C(=O)N3CC4CC3CO4)cnn1C(C)C)Cn1c-2c(C2CCCCC2)c2ccc(C(=O)NS(=O)(=O)C(C)C)cc21 (stereo not shown)	1 to 500
COc1ccc2c(c1)C=C(c1c(C(=O)N3CC4CCC(C3)O4)c(C)nn1C(C)C)Cn1c-2c(C2CCCCC2)c2ccc(C(=O)NS(=O)(=O)C(C)C)cc21	1 to 500
COc1ccc2c(c1)C=C(c1c(C(=O)N3C4CCC3CN(C)C4)c(C)nn1C(C)C)Cn1c-2c(C2CCCCC2)c2ccc(C(=O)NS(=O)(=O)C(C)C)cc21	1 to 500
CCn1nc(C)c(C(=O)N2C3CCC2CN(C)C3)c1C1=Cc2cc(OC)ccc2-c2c(C3CCCCC3)c3ccc(C(=O)NS(=O)(=O)C(C)C)cc3n2C1	1 to 500
CCn1ncc(C(=O)N2CC3CCC(C2)O3)c1C1=Cc2cc(OC)ccc2-c2c(C3CCCCC3)c3ccc(C(=O)NS(=O)(=O)C(C)C)cc3n2C1	1 to 500
CCn1ncc(C(=O)N2CC3CCC(C2)N3C)c1C1=Cc2cc(OC)ccc2-c2c(C3CCCCC3)c3ccc(C(=O)NS(=O)(=O)C(C)C)cc3n2C1	1 to 500

molecular target: T1, HCV NS5B (Hepatitis C virus genotype 1b, UniProt Q9WMX2); test: HCV NS5B RdRp enzyme assay (standard or modified); assay type: biochemical; conditions: not given
T1 construct: The protein was expressed with an 18 amino acid C-terminal truncation to enhance the solubility; made in house; host or cells: E. coli BL21(DE3)
Procedure: HCV NS5B RdRp cloning, expression, and purification. The cDNA encoding the NS5B protein of HCV, genotype 1b, was cloned into the pET21a expression vector. The protein was expressed with an 18 amino acid C-terminal truncation to enhance the solubility. The E. coli competent cell line BL21(DE3) was used for expression of the protein. Cultures were grown at 37 °C for ~ 4 hours until the cultures reached an optical density of 2.0 at 600 nm. The cultures were cooled to 20 °C and induced with I mM IPTG. Fresh ampicillin was added to a final concentration of 50 µg/ml and the cells were grown overnight at 20 °C.
Cell pellets (3L) were lysed for purification to yield 15-24 mgs of purified NS5B. The lysis buffer consisted of 20 mM Tris-HCl, pH 7.4, 500 mM NaCl, 0.5% triton X-100, 1 mM DTT, 1mM EDTA, 20% glycerol, 0.5 mg/ml lysozyme, 10 mM MgCl2, 15 ug/ml deoxyribonuclease I, and Complete TM protease inhibitor tablets (Roche). After addition of the lysis buffer, frozen cell pellets were resuspended using a tissue homogenizer. To reduce the viscosity of the sample, aliquots of the lysate were sonicated on ice using a microtip attached to a Branson sonicator. The sonicated lysate was centrifuged at 100,000 x g for 1hr at 4 °C and filtered through a 0.2 µm filter unit (Corning).
The protein was purified using three sequential chromatography steps: Heparin sepharose CL-6B, polyU sepharose 4B, and Hitrap SP sepharose (Pharmacia). The chromatography buffers were identical to the lysis buffer but contained no lysozyme, deoxyribonuclease I, MgCl2 or protease inhibitor and the NaCl concentration of the buffer was adjusted according to the requirements for charging the protein onto the column. Each column was eluted with a NaCl gradient which varied in length from 5-50 column volumes depending on the column type. After the final chromatography step, the resulting purity of the enzyme is >90% based on SDS-PAGE analysis. The enzyme was aliquoted and stored at -80 °C.
Standard HCV NS5B RdRp enzyme assay. HCV RdRp genotype 1b assays were run in a final volume of 60 µl in 96 well plates (Costar 3912). The assay buffer is composed of 20 mM Hepes, pH 7.5, 2.5 mM KCI, 2.5 mM MgCl2, 1 mM DTT, 1.6 U RNAse inhibitor (Promega N2515), 0.1 mg/ml BSA (Promega R3961), and 2 % glycerol. All compounds were serially diluted (3-fold) in DMSO and diluted further in water such that the final concentration of DMSO in the assay was 2%. HCV RdRp genotype Ib enzyme was used at a final concentration of 28 nM. A polyA template was used at.6 nM, and a biotinylated oligo-dT12 primer was used at 180 nM final concentration. Template was obtained commercially (Amersham 27-4110). Biotinylated primer was prepared by Sigma Genosys. 3H-UTP was used at 0.6 µCi (0.29 µM total UTP). Reactions were initiated by the addition of enzyme, incubated at 30 °C for 60 min, and stopped by adding 25 µl of 50 mM EDTA containing SPA beads (4 µg/µl, Amersham RPNQ 0007). Plates were read on a Packard Top Count NXT after > 1hr incubation at room temperature.
Modified HCV NS5B RdRp enzyme assay. A modified enzyme assay was performed essentially as described for the standard enzyme assay except for the following: The biotinylated oligo dT12 primer was precaptured on streptavidin-coated SPA beads by mixing primer and beads in assay buffer and incubating at room temperature for one hour. Unbound primer was removed after centrifugation. The primer-bound beads were resuspended in 20 mM Hepes buffer, pH 7.5 and used in the assay at final concentrations of 20 nM primer and 0.67 µg/µl beads. Order of addition in the assay: enzyme (14 nM) was added to diluted compound followed by the addition of a mixture of template (0.2 nM), 3H-UTP (0.6 µCi, 0.29 µM), and primer-bound beads, to initiate the reaction; concentrations given are final. Reactions were allowed to proceed for 4 hours at 30° C.
IC50 values for compounds were determined using seven different [I]. […]

T1 sequence (Q9WMX2 2420-2992): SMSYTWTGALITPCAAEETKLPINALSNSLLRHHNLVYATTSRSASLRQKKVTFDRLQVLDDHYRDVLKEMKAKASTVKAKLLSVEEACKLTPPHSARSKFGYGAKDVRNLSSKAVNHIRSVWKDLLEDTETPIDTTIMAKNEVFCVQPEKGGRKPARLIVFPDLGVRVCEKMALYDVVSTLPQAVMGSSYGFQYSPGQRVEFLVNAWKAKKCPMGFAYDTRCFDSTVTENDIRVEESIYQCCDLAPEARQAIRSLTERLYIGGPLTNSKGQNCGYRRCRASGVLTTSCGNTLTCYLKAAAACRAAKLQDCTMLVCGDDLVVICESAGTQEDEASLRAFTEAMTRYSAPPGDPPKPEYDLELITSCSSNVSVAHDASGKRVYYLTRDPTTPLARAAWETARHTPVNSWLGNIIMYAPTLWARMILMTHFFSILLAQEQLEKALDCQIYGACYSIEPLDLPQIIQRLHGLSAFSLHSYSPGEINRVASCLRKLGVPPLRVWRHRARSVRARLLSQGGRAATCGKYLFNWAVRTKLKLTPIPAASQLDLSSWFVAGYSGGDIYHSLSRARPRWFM

Compound	IC50 [nM]
CCn1ncc(C(=O)N2C3CCC2CN(C)C3)c1C1=Cc2cc(OC)ccc2-c2c(C3CCCCC3)c3ccc(C(=O)NS(=O)(=O)C(C)C)cc3n2C1	1 to 500
COc1ccc2c(c1)C=C(c1c(C(=O)N3CC4CCC(C3)O4)cnn1CC(F)(F)F)Cn1c-2c(C2CCCCC2)c2ccc(C(=O)NS(=O)(=O)C(C)C)cc21	1 to 500
COc1ccc2c(c1)C=C(c1c(C(=O)N3C4COCC3COC4)cnn1CC(F)(F)F)Cn1c-2c(C2CCCCC2)c2ccc(C(=O)NS(=O)(=O)C(C)C)cc21	1 to 500
COc1ccc2c(c1)C=C(c1c(C(=O)N3C4CCCC3COC4)cnn1C(C)C)Cn1c-2c(C2CCCCC2)c2ccc(C(=O)NS(=O)(=O)C(C)C)cc21	1 to 500
COc1ccc2c(c1)C=C(c1c(C(=O)N3C4CCC3CN(C)C4)c(C)nn1C(C)C)Cn1c-2c(C2CCCCC2)c2ccc(C(=O)NS(=O)(=O)C(C)C)cc21	1 to 500
CCn1nc(C)c(C(=O)N2C3CCC2CN(C)C3)c1C1=Cc2cc(OC)ccc2-c2c(C3CCCCC3)c3ccc(C(=O)NS(=O)(=O)C(C)C)cc3n2C1	1 to 500
CCn1ncc(C(=O)N2CC3CCC(C2)N3C)c1C1=Cc2cc(OC)ccc2-c2c(C3CCCCC3)c3ccc(C(=O)NS(=O)(=O)C(C)C)cc3n2C1	1 to 500

same assay, conditions: HCV NS5B RdRp enzyme, genotype 1b; read-out: IC50

Compound	IC50 [nM]
COc1ccc2c(c1)C=C(c1c(C(=O)N3CC4CC3CO4)cnn1CC(F)(F)F)Cn1c-2c(C2CCCCC2)c2ccc(C(=O)NS(=O)(=O)C(C)C)cc21 (stereo not shown)	1 to 500
COc1ccc2c(c1)C=C(c1c(C(=O)N3CC4CC3CO4)cnn1C(C)C)Cn1c-2c(C2CCCCC2)c2ccc(C(=O)NS(=O)(=O)C(C)C)cc21 (stereo not shown)	1 to 500
